In patent US12274680B2, “Treatment of benign prostatic hypertrophy with capsinoids” (priority 2022, dated 2025):

Tests used:
BPH = conditions: longer term studies; cited from earlier work
[1] = tested on: bladder outlet obstruction (BOO) due to benign prostatic hypertrophy (BPH); assay: Case observation of one patient with BOO due to BPH (self-catheterization frequency, urine flow, PSA, prostate size); type: in vivo
Protocol: A patient suffering from BOO due to BPH was experiencing increasing symptoms of BOO from 2018 to 2022 in addition to increasing levels of prostate specific antigen (PSA). This patient preferred the occasional self-catheterization to surgical treatment of the BPH. From 2018 to 2021 the self-catheterization frequency associated with 8 mg of silodosin (an alpha-1 antagonist/blocker) orally daily was about once every 6 months. […] By January 2022, the self-catheterization was weekly. The patient commented that most of the times self-catheterization was necessary, followed a decreased intake of spicy foods, which were an almost daily ingestion for this patient. The patient was instructed to ingest 40,000 SHU (Scoville Heat Units) daily in the form of a cayenne nutraceutical capsule obtained over the counter (OTC) at a pharmacy. The cayenne capsule is a powder of ground chili pepper with a claimed total capsinoid activity of 40,000 SHU resulting from the mixture of capsinoid chemicals in the pepper. […] These clinical findings are consistent with the dramatic improvement in BOO following treatment with oral capsinoids.

SMILES | urinary flow rates and subjective symptom scores (BPH) | adverse event ([1]; silodosin 8 mg orally daily, led to dose decrease to 4 mg) | self-catheterization frequency ([1]; silodosin dose decreased to 4 mg, by January 2022)
COc1cc2nc(N3CCN(C(=O)c4ccco4)CC3)nc(N)c2cc1OC [prazosin] | significant improvements |  | 
O=C(NC1CCN(CCc2c[nH]c3ccccc23)CC1)c1ccccc1 [indoramin] | significant improvements |  | 
COc1cc2nc(N3CCN(C(=O)C4CCCO4)CC3)nc(N)c2cc1OC (stereo not drawn) [terazosin] | significant improvements |  | 
COc1cc2nc(N3CCN(C(=O)C4COc5ccccc5O4)CC3)nc(N)c2cc1OC (stereo not drawn) [doxazosin] | significant improvements |  | 
C[C@H](Cc1cc2c(c(C(N)=O)c1)N(CCCO)CC2)NCCOc1ccccc1OCC(F)(F)F [silodosin] |  | severe cardiovascular adverse event | weekly
